This is an account of results in article PMC11024854 (Theranostics, 2024).

Molecules are shown by their SMILES.

Experiment [1] addresses T1, HSP90α (HSP90AA1) (Homo sapiens, UniProt P07900).
T1 construct: recombinant human HSP90AA1 protein
Put plainly: SPR (Biacore […], immobilized HSP90AA1); also C-terminal HSP90α:PPID AlphaLISA inhibition at […]. Format: binding. In general terms: In SPR one partner is held on a chip, and binding of the other changes the refractive index at the surface.

Experiment [2] has as its target T2, HSP90α (Homo sapiens, UniProt P07900).
T2 construct: gene HSP90AA1; purified recombinant HSP90α (N-terminal domain assay kit)
Put plainly: competitive binding assay against FITC-labeled geldanamycin ([…] compound).

Consider `COc1c(C(=O)Nc2ccc3c(C)nn(CCC4CCN(C)CC4)c3c2)ccc2c1C=CC(C)(C)O2` [HVH-2930], for which binding in experiment [1] was characterised by a dissociation constant (Kd) of 97.2 µM. In other words, the double-digit micromolar range.
In the case of `CC(C)c1cc(C(=O)N2Cc3ccc(CN4CCN(C)CC4)cc3C2)c(O)cc1O` [onalespib], in experiment [2], the “competitive binding assay against FITC-labeled geldanamycin (1000 nM compound)” value is “unlike the N-terminal HSP90 inhibitors, neither HVH-2930 nor novobiocin exhibited any binding activity to the N-terminal region of HSP90α”.
